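48-hour exposure; five concentrations; linearly interpolated endpoints. GI50 = concentration required for 50% inhibition of growth.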 Active and inactive are the calls of the source. Rule as the data show it: active = GI50 up to about 1.1 µM and inactive = higher. *1 amine or outer side, *2 acyl side, *3 side chain or, on linkers, in order; H or OH if unused. Where a SMILES comes first, the peptide text is derived from it. Bridges are numbered along the chain shown (N, C = ends). Roman numbers before positions name the chains, in order. [ ]: non-standard residue; d: D form. Actinocin(1to9) = Cc1c2oc3c(C)ccc(C(=O)[*:2])c3nc-2c(C(=O)[*:1])c(N)c1=O; NMeV = CN[CH](C(=O)O)C(C)C; Sar = CNCC(=O)O
Experiments:
Assay in all cases: inhibition of tumour cell growth, NCI panel, 48 h
SNB-19 = test system: SNB-19
SF-539 = test system: SF-539
NCI-H460 = test system: NCI-H460
MDA-MB-435 = test system: MDA-MB-435
OVCAR-3 = test system: OVCAR-3
HT-29 = test system: HT-29
K562 = test system: K562
OVCAR-4 = test system: OVCAR-4
PC-3 = test system: PC-3
UO-31 = test system: UO-31
SF-295 = test system: SF-295
OVCAR-5 = test system: OVCAR-5
NCI-H23 = test system: NCI-H23
UACC-62 = test system: UACC-62
DU-145 = test system: DU-145
U-251 = test system: U-251
EKVX = test system: EKVX
MOLT-4 = test system: MOLT-4
KM12 = test system: KM12

| Compound | GI50 (SNB-19) | GI50 (SF-539) | GI50 (NCI-H460) | GI50 (MDA-MB-435) | GI50 (OVCAR-3) | GI50 (HT-29) | GI50 (K562) | GI50 (OVCAR-4) | GI50 (PC-3) | GI50 (UO-31) | GI50 (SF-295) | GI50 (OVCAR-5) | GI50 (NCI-H23) | GI50 (UACC-62) | GI50 (DU-145) | GI50 (U-251) | GI50 (EKVX) | GI50 (MOLT-4) | GI50 (KM12) |
| --- | --- | --- | --- | --- | --- | --- | --- | --- | --- | --- | --- | --- | --- | --- | --- | --- | --- | --- | --- |
| CCC(C)C1NC(=O)C(NC(=O)c2c3nc4c(C(=O)NC5C(=O)NC(C(C)C)C(=O)N6CCCC6C(=O)N(C)CC(=O)N(C)C(C(C)C)C(=O)OC5C)ccc(C)c4oc-3c(C)c(=O)c2N)C(C)OC(=O)C(C(C)C)N(C)C(=O)CN(C)C(=O)C2CCCN2C1=O (stereo unspecified) (I: TIP[Sar][NMeV] / II: TVP[Sar][NMeV]; ester I:1-I:C, II:1-II:C; linker I:N-II:N via Actinocin(1to9); configuration not given here) | < 0.0001 µM (active) | 0.00165 µM (active) | < 0.0001 µM (active) | 0.000513 µM (active) | 0.0185 µM (active) | < 0.0001 µM (active) | < 0.0001 µM (active) | 0.0102 µM (active) | 0.000346 µM (active) | 0.0787 µM (active) | 0.000353 µM (active) | 0.000586 µM (active) | 0.000697 µM (active) | 0.00589 µM (active) | 0.00475 µM (active) | < 0.0001 µM (active) | 0.00377 µM (active) | < 0.0001 µM (active) | 0.00016 µM (active) |
| Nc1ccc2c3c1cccc3c(=O)n1c3ccc(Cc4ccc5c(c4)nc4c6ccc(N)c7cccc(c(=O)n54)c76)cc3nc21 | > 100 µM (inactive) | > 100 µM (inactive) | > 100 µM (inactive) | > 100 µM (inactive) | > 100 µM (inactive) | > 100 µM (inactive) | > 100 µM (inactive) | > 100 µM (inactive) | > 100 µM (inactive) | > 100 µM (inactive) | > 100 µM (inactive) | > 100 µM (inactive) | > 100 µM (inactive) | > 100 µM (inactive) | > 100 µM (inactive) | > 100 µM (inactive) | > 100 µM (inactive) | > 100 µM (inactive) | > 100 µM (inactive) |
| COC(=O)C(=O)C(C(=O)C(=O)Nc1cc(C)ccc1C)c1nc2ccccc2nc1O (stereo unspecified) | > 100 µM (inactive) | > 100 µM (inactive) | > 100 µM (inactive) | > 100 µM (inactive) | > 100 µM (inactive) | > 100 µM (inactive) | > 100 µM (inactive) | > 100 µM (inactive) | > 100 µM (inactive) | > 100 µM (inactive) | > 100 µM (inactive) | > 100 µM (inactive) | > 100 µM (inactive) | 87.7 µM (inactive) | > 100 µM (inactive) | > 100 µM (inactive) | 26.6 µM (inactive) | 71.3 µM (inactive) | > 100 µM (inactive) |
| COc1ccc2c(c1)CCC/C2=N\NS(=O)(=O)c1c(C)cc(C)cc1C | 41.6 µM (inactive) | 19.2 µM (inactive) | 31 µM (inactive) | 27.7 µM (inactive) | 32.4 µM (inactive) | 20.7 µM (inactive) | 18.1 µM (inactive) | 29.9 µM (inactive) | 28.6 µM (inactive) | 28.9 µM (inactive) | 34.4 µM (inactive) | 39.6 µM (inactive) | 24.8 µM (inactive) | 18.7 µM (inactive) | 25.6 µM (inactive) | 31.6 µM (inactive) | 23.2 µM (inactive) | 25.5 µM (inactive) | 16 µM (inactive) |
| CCn1c(SCc2nnc(Nc3ccccc3)s2)nc2ccccc2c1=O | 3.5 µM (inactive) | 3.27 µM (inactive) | 1.45 µM (inactive) | 10.3 µM (inactive) | 5.19 µM (inactive) | 2.95 µM (inactive) | 19.8 µM (inactive) | 1.82 µM (inactive) | 8.79 µM (inactive) | 3.08 µM (inactive) | 2.52 µM (inactive) | 6.14 µM (inactive) | 4.7 µM (inactive) | 3.3 µM (inactive) | 9.1 µM (inactive) | 2.24 µM (inactive) | 3.56 µM (inactive) | 42.6 µM (inactive) | 2.38 µM (inactive) |
| O=C(O)[C@@H]1CCCN1 [PROLINE] | > 100 µM (inactive) | > 100 µM (inactive) | > 100 µM (inactive) | > 100 µM (inactive) | > 100 µM (inactive) | > 100 µM (inactive) | > 100 µM (inactive) | > 100 µM (inactive) | > 100 µM (inactive) | > 100 µM (inactive) | > 100 µM (inactive) | > 100 µM (inactive) | > 100 µM (inactive) | > 100 µM (inactive) | > 100 µM (inactive) | > 100 µM (inactive) | > 100 µM (inactive) | > 100 µM (inactive) | > 100 µM (inactive) |
| [N-]=[N+]=Nc1ccc2c(c1)Sc1ccccc1N2CCCCN1CCN(Cc2ccc(C(=O)c3ccccc3)cc2)CC1 | > 100 µM (inactive) | 3.35 µM (inactive) | 2.85 µM (inactive) | 4.92 µM (inactive) | 3.72 µM (inactive) | 1.46 µM (inactive) | 3.23 µM (inactive) | 4.6 µM (inactive) | 3.35 µM (inactive) | 2.51 µM (inactive) | 23.4 µM (inactive) | 4.16 µM (inactive) | 6.49 µM (inactive) | 2.43 µM (inactive) | > 100 µM (inactive) | 5.74 µM (inactive) | 6.67 µM (inactive) | 3.6 µM (inactive) | 3.01 µM (inactive) |
| COC(=O)c1ccccc1C1CN=NC12Cc1ccc3c(c1C2=O)CCC3 (stereo unspecified) | 65 µM (inactive) | > 100 µM (inactive) | 70 µM (inactive) | > 100 µM (inactive) | 6.92 µM (inactive) | 82 µM (inactive) | 7.23 µM (inactive) | > 100 µM (inactive) | 49.3 µM (inactive) | 68.5 µM (inactive) | 70.6 µM (inactive) | > 100 µM (inactive) | 19.2 µM (inactive) | > 100 µM (inactive) | > 100 µM (inactive) | 49.1 µM (inactive) | > 100 µM (inactive) | 12.6 µM (inactive) | 42.1 µM (inactive) |
| O=C1/C(=C\c2ccc(Cl)cc2)N=C(c2ccccc2)N1n1c(=O)cn[nH]c1=S | 54.3 µM (inactive) | > 100 µM (inactive) | > 100 µM (inactive) | 30.5 µM (inactive) | 27.4 µM (inactive) | 37.7 µM (inactive) | 16.9 µM (inactive) | 23.6 µM (inactive) | 39.7 µM (inactive) | 60.4 µM (inactive) | > 100 µM (inactive) | > 100 µM (inactive) | 20.3 µM (inactive) | 33.7 µM (inactive) | 19.8 µM (inactive) | 19.8 µM (inactive) | > 100 µM (inactive) | 18.7 µM (inactive) | > 100 µM (inactive) |
| CC(=O)NC(CC(C)C)C(=O)NC(CC(C)C)C(=O)NC(C=O)CCCNC(=N)N (stereo unspecified) | > 100 µM (inactive) | > 100 µM (inactive) | > 100 µM (inactive) | > 100 µM (inactive) | > 100 µM (inactive) | > 100 µM (inactive) | > 100 µM (inactive) | > 100 µM (inactive) | > 100 µM (inactive) | > 100 µM (inactive) | > 100 µM (inactive) | > 100 µM (inactive) | > 100 µM (inactive) | > 100 µM (inactive) | > 100 µM (inactive) | > 100 µM (inactive) | > 100 µM (inactive) | 65 µM (inactive) | > 100 µM (inactive) |
| Nc1ccc2c(c1)C(=O)N1CCC[C@H]1C(=O)N2 | > 100 µM (inactive) | > 100 µM (inactive) | > 100 µM (inactive) | > 100 µM (inactive) | > 100 µM (inactive) | > 100 µM (inactive) | > 100 µM (inactive) | > 100 µM (inactive) | > 100 µM (inactive) | > 100 µM (inactive) | > 100 µM (inactive) | > 100 µM (inactive) | > 100 µM (inactive) | > 100 µM (inactive) | > 100 µM (inactive) | > 100 µM (inactive) | > 100 µM (inactive) | > 100 µM (inactive) | > 100 µM (inactive) |
| COC(=O)C(Cc1c[nH]c2ccccc12)NP(=O)(O)OCC1OC(n2cc(Br)c(=O)[nH]c2=O)CC1O (stereo unspecified) | > 100 µM (inactive) | > 100 µM (inactive) | > 100 µM (inactive) | > 100 µM (inactive) | > 100 µM (inactive) | > 100 µM (inactive) | > 100 µM (inactive) | > 100 µM (inactive) | > 100 µM (inactive) | > 100 µM (inactive) | > 100 µM (inactive) | > 100 µM (inactive) | > 100 µM (inactive) | > 100 µM (inactive) | > 100 µM (inactive) | > 100 µM (inactive) | > 100 µM (inactive) | > 100 µM (inactive) | > 100 µM (inactive) |
| CCOC(=O)c1cc2c3c(cc(OC)c2[nH]1)N(C(=O)OCC)CC3 | > 100 µM (inactive) | > 100 µM (inactive) | > 100 µM (inactive) | > 100 µM (inactive) | > 100 µM (inactive) | > 100 µM (inactive) | > 100 µM (inactive) | > 100 µM (inactive) | > 100 µM (inactive) | > 100 µM (inactive) | > 100 µM (inactive) | > 100 µM (inactive) | > 100 µM (inactive) | > 100 µM (inactive) | > 100 µM (inactive) | > 100 µM (inactive) | 42.5 µM (inactive) | > 100 µM (inactive) | > 100 µM (inactive) |
| N#Cc1c(-c2ccc(Cl)cc2)c2c([nH]c1=O)-c1ccccc1SC2 | 91.8 µM (inactive) | 25.6 µM (inactive) | 46.3 µM (inactive) | 41 µM (inactive) | 26.2 µM (inactive) | 59.7 µM (inactive) | 32.9 µM (inactive) | 38.6 µM (inactive) | 42.8 µM (inactive) | 56.9 µM (inactive) | 28 µM (inactive) | > 100 µM (inactive) | 93.3 µM (inactive) | 32.7 µM (inactive) | > 100 µM (inactive) | 25.6 µM (inactive) | 21.1 µM (inactive) | 27.4 µM (inactive) | 63.7 µM (inactive) |

Source: ChEMBL document CHEMBL1201862, “PubChem BioAssay data set” (2004)
